# Results from PubChem BioAssay (NCI).
# Several values for one entry are separate records, joined by “and”; a condition that tells them apart may be missing. Equal entries are not always repeated.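 Results reflect a 48-hour exposure of cells in 96-well plates to compound at five concentrations. Here, GI50 denotes the concentration required for 50% inhibition of growth. TGI is the concentration that stops growth completely.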
# Legend:
# Experiment in all cases: NCI anticancer screen, dose series, 48 h
# OVCAR-4 ovarian = tested on: OVCAR-4 ovarian
# SK-MEL-5 melanoma = tested on: SK-MEL-5 melanoma
# U251 CNS = tested on: U251 CNS
# MDA-MB-435 = tested on: MDA-MB-435
# HS 578T breast = tested on: HS 578T breast
# HL-60(TB) leukemia = tested on: HL-60(TB) leukemia
# NCI-H226 lung = tested on: NCI-H226 lung
# SF-268 CNS = tested on: SF-268 CNS
# SK-MEL-2 melanoma = tested on: SK-MEL-2 melanoma
# A498 renal = tested on: A498 renal
# HCC-2998 colon = tested on: HCC-2998 colon
# SK-OV-3 ovarian = tested on: SK-OV-3 ovarian
# RPMI-8226 leukemia = tested on: RPMI-8226 leukemia
Compound,TGI (OVCAR-4 ovarian),TGI (SK-MEL-5 melanoma),TGI (U251 CNS),TGI (MDA-MB-435),TGI (HS 578T breast),TGI (HL-60(TB) leukemia),TGI (NCI-H226 lung),TGI (SF-268 CNS),TGI (SK-MEL-2 melanoma),TGI (A498 renal),TGI (HCC-2998 colon),TGI (SK-OV-3 ovarian),TGI (RPMI-8226 leukemia),GI50 (NCI-H226 lung),GI50 (RPMI-8226 leukemia)
CCOC(=O)c1cn(CC)c2ccc3c(c2c1=O)S(=O)(=O)C=C3,> 100 µM,> 100 µM,> 100 µM,> 100 µM,> 100 µM,> 100 µM,> 100 µM,> 100 µM,> 100 µM,> 100 µM,> 100 µM,> 100 µM,> 100 µM,–,–
CCC(=C/[C@H](C)C/C=C/C(C)=C/[C@@H](C)C(=O)[C@@H](C)[C@H](O)[C@@H](C)CC)/C=C/[C@H]1CC=CC(=O)O1,12 µM,0.0182 µM,1.4 µM and 11.6 µM,0.166 µM,7.02 µM and 2.38 µM,0.0126 µM,–,2.79 µM and 12.2 µM,< 0.0012 µM,< 0.0012 µM,< 0.0012 µM,3.28 µM and 18.6 µM,–,< 0.0012 µM,< 0.0012 µM
Cc1ccc(NCCN(C)C)c2c(=O)c3cc(O)ccc3sc12,14.1 µM,9.88 µM,8.49 µM,2.94 µM,3.87 µM,6.07 µM,15.2 µM,15.6 µM,35.7 µM,21.9 µM,10.4 µM,9.84 µM,11.6 µM,–,–
COc1ccc(CC[N+]2(C)COc3cc4oc(=O)cc(C)c4cc3C2)cc1OC (configuration not stated),> 100 µM,> 100 µM,> 100 µM,> 100 µM,> 100 µM,> 100 µM,> 100 µM,> 100 µM,> 100 µM,> 100 µM,> 100 µM,> 100 µM,> 100 µM,–,–
COc1ccc(N=Nc2c(N)nn3c(SC)c(C#N)c(N)nc23)cc1,35 µM,34.7 µM,19.5 µM,27.1 µM,6.91 µM,6.07 µM,40.7 µM,11.4 µM,7.12 µM,28.5 µM,16.7 µM,38.8 µM,6.28 µM,–,–
COC(=O)C(=O)C(C(=O)C(=O)Nc1ccc(C)c(C)c1)c1nc2ccc([N+](=O)[O-])cc2[nH]c1=O (configuration not stated),> 100 µM,> 100 µM,> 100 µM,> 100 µM,> 100 µM,> 100 µM,> 100 µM,> 100 µM,> 100 µM,> 100 µM,> 100 µM,> 100 µM,> 100 µM,–,–
Oc1ccc(SCc2cc(O)ccc2O)cc1,18.5 µM,22.5 µM,28.4 µM,27.1 µM,97 µM,> 100 µM,35.5 µM,> 62.7 µM,39.2 µM,> 89.4 µM,> 68.9 µM,> 96.7 µM,> 100 µM,–,–
O=C1C=C/C(=C/[C@H]2SSC=C[C@]23C=CC(=O)C3)C1,> 74.2 µM,38.9 µM,> 100 µM,> 53.1 µM,93.2 µM,15.1 µM,29.2 µM,> 85.2 µM,> 76.2 µM,38.3 µM,44.7 µM,> 100 µM,> 100 µM,–,–
CN(/N=C\c1ccc2ccccc2c1)C1=NCCCN1,> 100 µM,24.6 µM,96.6 µM,30.8 µM,42.1 µM,37.4 µM,40.4 µM,60.2 µM,35 µM,28.8 µM,27.2 µM,98.3 µM,50.7 µM,–,–
Cc1cc(=O)n2nc(CSc3nnc(Sc4cc(O)ccc4O)s3)sc2n1,> 100 µM,> 100 µM,> 100 µM,32.7 µM,> 100 µM,54.1 µM,> 100 µM,> 100 µM,> 100 µM,> 100 µM,> 100 µM,> 100 µM,61.4 µM,–,–
C#CCOC(=O)C(=[N+]=[N-])C(=O)CC(C)C,> 10 µM,> 10 µM,> 10 µM,> 10 µM,> 10 µM,> 10 µM,> 10 µM,> 10 µM,> 10 µM,> 10 µM,> 10 µM,> 10 µM,> 10 µM,–,–
O=C(O)CCC1NC(/C(=C/c2ccccc2O)NC(=O)c2ccccc2)OC1=O (configuration not stated),> 100 µM,> 100 µM,> 100 µM,> 100 µM,> 100 µM,> 100 µM,> 100 µM,> 100 µM,> 100 µM,> 100 µM,> 100 µM,> 100 µM,> 100 µM,–,–
S=c1[nH]n2c(COc3cc(Cl)c(OCc4nnc5sc(=S)[nH]n45)cc3Cl)nnc2s1,> 100 µM,> 100 µM,> 100 µM,> 100 µM,> 100 µM,> 100 µM,> 100 µM,> 100 µM,> 100 µM,> 100 µM,> 100 µM,> 100 µM,> 100 µM,–,–
CCCCCCCc1ccc(-c2nnc(N=Nc3ccc(OCCCCC)cc3)s2)s1,> 100 µM,> 100 µM,> 100 µM,> 100 µM,> 100 µM,> 100 µM,> 100 µM,> 100 µM,> 100 µM,> 100 µM,> 100 µM,> 100 µM,> 100 µM,–,–
